Reference: US20250041245A1, “ENDOXIFEN FOR TREATMENT OF CANCERS” (Atossa Therapeutics, Inc., priority 2021, published 2025)
“And” between values parts separate entries of the source, which are not always exact repeats. Equal values may be shown once. “Also recorded” adds a separate entry of the source.

What was measured:
Format in all cases: cell-based, human
[1] = tested on: patient-derived tumor organoids (PDTOs), melanoma; experiment: Endoxifen screen in PDTOs: melanoma; set-up: key to Personalization Category: Personalization categories range from High, Good, Moderate, Low, to None; Personalization categories range from High, Good, Moderate, Low, to None; Personalization categories range from High, Good, Moderate, Low, to None; Personalization categories range from High, Good, Moderate, Low, to None; Personalization categories range from High, Good, Moderate, Low, to None; key to Sensitivity Category: Sensitivity categories range from High, Good, Moderate, Low, to None; Sensitivity categories range from High, Good, Moderate, Low, to None; Sensitivity categories range from High, Good, Moderate, Low, to None; Sensitivity categories range from High, Good, Moderate, Low, to None; Sensitivity categories range from High, Good, Moderate, Low, to None; AUC: unit not given beside the values
Procedure: (§1) This example describes screening endoxifen in patient-derived tumor organoids. Endoxifen was tested as a single agent on tumor organoids derived from patients diagnosed with various cancer types using a personalized cancer treatment screening assay (PARIS© Test, SEngine Precision Medicine). The screen utilized patient-derived tumor organoids (PDTOs) along with high-throughput drug screening and machine learning-guided data analysis to quantify the efficacy of endoxifen against samples derived from individual patients diagnosed with various cancer types. PDTOs are self-organizing, three-dimensional organoid structures that recapitulate structural, functional, and genomic aspects of in vivo organs. The PDTOs were grown in culture from patient tumor biopsy samples.
(§2) Fresh patient biopsy samples received following surgery were cleaned and purified. Immune cells (e.g., lymphocytes, blood cells), cancer-associated fibroblasts, and other non-tumor cells were removed to establish pure PDTOs for endoxifen testing. The tumor organoids were grown and expanded by supplying organ- and patient-specific growth factors and nutrients. The PDTOs were treated with increasing concentrations of endoxifen ranging from about 30 nM to about 10 μM, and the drug response was measured using a luminescence readout. A lower luminescence was indicative of a stronger drug response.
(§3) The results were analyzed using a “SEngine Precision Medicine” (SPM) scoring system to assess the sensitivity and personalization of each tumor organoid to endoxifen. The SPM score correlates with clinical outcomes, such that a higher SPM score for a specific PDTO-drug combination predicts a more favorable clinical outcome following treatment of the corresponding patient with the tested drug.
(§4) This example describes testing endoxifen efficacy against 17 distinct cancer types in patient-derived tumor organoids (PDTOs). Screening of PDTOs was performed as described in EXAMPLE 1. For each PDTO sample, the drug response was measured using a luminescent readout over a range of endoxifen concentrations. The drug response was evaluated based on the area under the fitted dose response curve (AUC) and the SPM scoring system. AUC values were normalized for each PDTO. Briefly, data points at each drug concentration were first normalized to a negative control, then a dose response drug curve was approximated using a four-parameter logistic model fitted to the normalized data points. The area under the curve was calculated from the normalized curve. Normalization allowed for comparison of AUC values between patient samples. The SPM scores were based on machine learning models that incorporate values for how well the drug kill patient cells (sensitivity metric), the relative drug responses of a patient to all other patients in a sample database (personalization metric), and knowledge of clinical outcomes for patients that had been evaluated with the personalized cancer screening assay (PARIS® Test, SEngine Precision Medicine).
The SPM scoring system evaluated whether a PDTO was unresponsive or responsive to endoxifen and the degree of drug response for PDTOs that were responsive to endoxifen. The SPM scoring system generated metrics an SPM score, predictive of clinical outcome, overall drug response (response category), drug sensitivity (sensitivity category), and drug personalization (personalization category). SPM scores ranged from 1-15, corresponding to the following drug response categories: no response (SPM 1-8), low response (SPM 9), moderate response (SPM 10-11), good response (SPM 12-13), and exceptional response (SPM 14-15). […] Moderate to good drug responses (SPM 10-13) may indicate that a drug has clinical relevance, possibly in combination with other drugs. The sensitivity category was determined from the sensitivity metric and is a measure of overall cell death of a patient's cells in response to endoxifen at six concentrations. […]

[2] = tested on: patient-derived tumor organoids (PDTOs), breast cancer; experiment: Endoxifen screen in patient-derived tumor organoids (PARIS Test): breast cancer; set-up: key to Personalization Category: Personalization categories range from High, Good, Moderate, Low, to None; Personalization categories range from High, Good, Moderate, Low, to None; Personalization categories range from High, Good, Moderate, Low, to None; Personalization categories range from High, Good, Moderate, Low, to None; Personalization categories range from High, Good, Moderate, Low, to None; key to Sensitivity Category: Sensitivity categories range from High, Good, Moderate, Low, to None; Sensitivity categories range from High, Good, Moderate, Low, to None; Sensitivity categories range from High, Good, Moderate, Low, to None; Sensitivity categories range from High, Good, Moderate, Low, to None; Sensitivity categories range from High, Good, Moderate, Low, to None; settings: each line one patient sample
Procedure: as §1, §2, §3, §4
(§5) The SPM scoring system evaluated whether a PDTO was unresponsive or responsive to endoxifen and the degree of drug response for PDTOs that were responsive to endoxifen. […] The sensitivity category was determined from the sensitivity metric and is a measure of overall cell death of a patient's cells in response to endoxifen at six concentrations. […]

[3] = tested on: patient-derived tumor organoids (PDTOs), cervical carcinoma; experiment: Endoxifen screen in PDTOs: cervical carcinoma; set-up: key to Personalization Category: Personalization categories range from High, Good, Moderate, Low, to None; Personalization categories range from High, Good, Moderate, Low, to None; Personalization categories range from High, Good, Moderate, Low, to None; Personalization categories range from High, Good, Moderate, Low, to None; Personalization categories range from High, Good, Moderate, Low, to None; key to Sensitivity Category: Sensitivity categories range from High, Good, Moderate, Low, to None; Sensitivity categories range from High, Good, Moderate, Low, to None; Sensitivity categories range from High, Good, Moderate, Low, to None; Sensitivity categories range from High, Good, Moderate, Low, to None; Sensitivity categories range from High, Good, Moderate, Low, to None; AUC: unit not given beside the values
Procedure: as §1, §2, §3, §4, §5

[4] = melanoma PDTOs, each line one patient sample

SMILES: CC/C(=C(\c1ccc(O)cc1)c1ccc(OCCNC)cc1)c1ccccc1 [Endoxifen, 4-hydroxy-N-desmethyltamoxifen]
- IC50 ([1]; Homo sapiens, skin cancer organoid assays, multiple skin cancers (summary statement)): < 10 µM
- Personalization Category [1, 4]: Low and Good and High
- Response Category [1, 4]: Low (low response (SPM 9)); also recorded: Moderate (moderate response (SPM 10-11)); also recorded: Good (good response (SPM 12-13))
- Sensitivity Category [1, 4]: Low and Moderate
- IC50 ([1]; melanoma PDTOs, each line one patient sample, four-parameter logistic fit): 2.74 µM and 3.3 µM and 1.44 µM and 7.06 µM
- AUC ([1]; melanoma PDTOs, each line one patient sample, normalized area under fitted dose response curve): 0.8952 and 0.7865 and 0.6541 and 0.8094
- SPM Score ([1]; melanoma PDTOs, each line one patient sample, score range 1-15): 9 and 11 (2×) and 13
- Response Category [2]: Moderate (moderate response (SPM 10-11)); also recorded: None (no response (SPM 1-8)); also recorded: Low (low response (SPM 9)); also recorded: Good (good response (SPM 12-13)); also recorded: Exceptional (exceptional response (SPM 14-15))
- AUC ([2]; normalized area under fitted dose response curve): 0.8248 and 0.9311 and 0.8639 and 0.6798 and 0.8079 and 0.9835 and 0.8609 and 0.8997 and 0.8847 and 0.9811 and 0.9320 and 0.9911 and 0.9378 and 0.4774 and 0.5912
- Sensitivity Category ([2]; overall cell death at six concentrations): Low and None and Moderate and Good
- Personalization Category ([2]; response relative to other PDTOs): Moderate and None and Low and High and Good
- SPM Score ([2]; score range 1-15): 10 and 1 (6×) and 9 (3×) and 13 (2×) and 11 and 4 and 14
- IC50 ([3]; Homo sapiens, Patient 10, four-parameter logistic fit): 3.48 µM
- Personalization Category ([3]; Patient 10): Good
- Sensitivity Category ([3]; Patient 10): Low
- AUC ([3]; Patient 10, normalized area under fitted dose response curve): 0.8002
- SPM Score ([3]; Patient 10, score range 1-15): 11
